One assay has as its system primary splenocytes. In kind it is cell-based, C57BL/6-Tg(HLA-A2.1)1Enge/J mice. The conditions noted are these: stimulation with P6 (data not shown).
Another assay deals with Influenza A/PR/8/34. Format: in vivo, C57BL/6-Tg(HLA-A2.1)1Enge/J mice.

For the substance IIGILHLILWILDRLFFKCIYRLF [P6], in the assay on primary splenocytes, the IL-4 production entry is “failure of stimulation with P6 to induce any IL-4 production”.
Take “NRP-v: Lysozyme (Sigma) denatured by boiling, used as the control non relevant preparation”: the “succumbed to infection (mortality)” value in the assay on Influenza A/PR/8/34 (CD8 depletion (anti-CD8 sera days 19 and 22), […], FIG. 3A) was 100%. Also, the mortality rate in the assay on Influenza A/PR/8/34 (absence of CD8 depletion (irrelevant sera), FIG. 3B) is on record as 100%.
